The values below come from patent publication US9999619B2, “Piperidin-4-yl azetidine derivatives as JAK1 inhibitors” (Incyte Corporation, priority 2010, dated 2018).

Holding throughout (assay type): biochemical
Assay [1] has as its target human JAK1 (a.a. 837-1142) (Homo sapiens, UniProt P23458). In words: In vitro JAK kinase assay (HTRF, phosphorylation of a biotinylated peptide), JAK1. Conditions: measured at 1 mM ATP. In a few lines: (§1)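 Phosphorylation of a biotinylated peptide by purified His-tagged JAK catalytic domains (insect-cell baculovirus expression) ran 1 hr at room temperature. After stopping with EDTA, Eu-Py20 and SA-APC were bound for 40 minutes and HTRF measured.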
(In general: Time-resolved FRET reads energy transfer from a long-lived donor to a nearby acceptor.)

Assay [2] concerns the target human JAK1 (a.a. 837-1142). The assay is described as above. Particulars: ratio of JAK2 IC50 to JAK1 IC50, measured at 1 mM ATP. Summed up: as §1
A further assay has as its target Jak2 (a.a. 828-1132) (Homo sapiens (Human), UniProt O60674). Put plainly: In vitro JAK kinase assay (HTRF, phosphorylation of a biotinylated peptide), JAK2. Conditions: measured at 1 mM ATP. In a few lines: as §1

pIC50: −log10 of the molar value.

Chain of Jak2 (a.a. 828-1132) (O60674 828-1132): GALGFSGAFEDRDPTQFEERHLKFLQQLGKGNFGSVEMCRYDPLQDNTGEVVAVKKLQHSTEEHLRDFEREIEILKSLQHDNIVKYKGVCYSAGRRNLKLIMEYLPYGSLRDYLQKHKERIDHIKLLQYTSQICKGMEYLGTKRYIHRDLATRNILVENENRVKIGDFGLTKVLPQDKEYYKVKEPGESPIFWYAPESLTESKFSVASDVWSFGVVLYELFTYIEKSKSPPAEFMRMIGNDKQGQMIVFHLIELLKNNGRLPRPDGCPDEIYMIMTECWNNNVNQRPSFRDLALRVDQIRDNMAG

In general, pIC50 refers to the IC50 on a negative log10 scale, so that one unit is a factor of ten. High values mean a low IC50, low ones a high IC50. On to `COc1ncccc1NC(=O)N1CCC(N2CC(CC#N)(n3cc(-c4ncnc5[nH]ccc45)cn3)C2)CC1` [Example 204, 4-{3-(cyanomethyl)-3-[4-(7H-pyrrolo[2,3-d]pyrimidin-4-yl)-1H-pyrazol-1-yl]azetidin-1-yl}-N-(2-methoxypyridin-3-yl)piperidine-1-carboxamide], for which the pIC50 in assay [1] was no less than 8.30; against Jak2 (a.a. 828-1132), 7.30 to 8.00. Besides, in assay [2], the “IC50 Ratio JAK2/JAK1” value is listed as 4.0.

Consider `N#CCC1(n2ccc(-c3ncnc4[nH]ccc34)c2)CN(C2CCN(C(=O)c3cccc(C(F)(F)F)c3)CC2)C1` [Example 268, (3-[3-(7H-pyrrolo[2,3-d]pyrimidin-4-yl)-1H-pyrrol-1-yl]-1-{1-[3-(trifluoromethyl)benzoyl]piperidin-4-yl}azetidin-3-yl)acetonitrile], for which the pIC50 was 7.70 to 8.30 in assay [1] and 7.30 to 8.00 at Jak2 (a.a. 828-1132). For the same molecule, in assay [2], the “IC50 Ratio JAK2/JAK1” value is listed as 3.1.

Take `N#CCC1(n2cc(-c3ncnc4[nH]ccc34)cn2)CN(C2CCN(C(=O)c3ccnc(C(F)(F)F)c3)CC2)C1` [Example 57, (3-[4-(7H-pyrrolo[2,3-d]pyrimidin-4-yl)-1H-pyrazol-1-yl]-1-{1-[2-(trifluoromethyl)isonicotinoyl]piperidin-4-yl}azetidin-3-yl)acetonitrile]: the pIC50 is less than 7.52 in assay [1] and less than 7.00 against Jak2 (a.a. 828-1132). Also, the “IC50 Ratio JAK2/JAK1” value in assay [2] is recorded as 3.3.

As to `Cc1nc(C(F)(F)F)ccc1NC(=O)N1CCC(N2CC(CC#N)(n3cc(-c4ncnc5[nH]ccc45)cn3)C2)CC1` [Example 205, 4-{3-(cyanomethyl)-3-[4-(7H-pyrrolo[2,3-d]pyrimidin-4-yl)-1H-pyrazol-1-yl]azetidin-1-yl}-N-[2-methyl-6-(trifluoromethyl)pyridin-3-yl]piperidine-1-carboxamide], the pIC50 in assay [1] was 7.70 to 8.30; at Jak2 (a.a. 828-1132), 7.30 to 8.00. In addition, the “IC50 Ratio JAK2/JAK1” value in assay [2] is given as 4.4.

Take `N#CCC1(n2cc(-c3ncnc4[nH]ccc34)cn2)CN(C2CCN(C(=O)OCc3ccccc3)CC2)C1` [Example 389, benzyl 4-{3-(cyanomethyl)-3-[4-(7H-pyrrolo[2,3-d]pyrimidin-4-yl)-1H-pyrazol-1-yl]azetidin-1-yl}piperidine-1-carboxylate]: the pIC50 in assay [1] is no less than 8.30; against Jak2 (a.a. 828-1132), 7.30 to 8.00. Besides, the “IC50 Ratio JAK2/JAK1” value in assay [2] is reported as 6.5.

Take `N#CCC1(n2ccc(-c3ncnc4[nH]ccc34)c2)CN(C2CCN(C(=O)Nc3ccc(Cl)cc3C#N)CC2)C1` [Example 293, 4-{3-(cyanomethyl)-3-[3-(7H-pyrrolo[2,3-d]pyrimidin-4-yl)-1H-pyrrol-1-yl]azetidin-1-yl}-N-(4-chloro-2-cyanophenyl)piperidine-1-carboxamide]: the pIC50 in assay [1] was no less than 8.30; on Jak2 (a.a. 828-1132) it was 7.30 to 8.00. Further, the “IC50 Ratio JAK2/JAK1” value in assay [2] came to 3.4.

In the case of `N#CCC1(n2ccc(-c3ncnc4[nH]ccc34)c2)CN(C2CCN(C(=O)c3cccc(OC(F)(F)F)c3F)CC2)C1` [Example 281, {1-{1-[2-fluoro-3-(trifluoromethoxy)benzoyl]piperidin-4-yl}-3-[3-(7H-pyrrolo[2,3-d]pyrimidin-4-yl)-1H-pyrrol-1-yl]azetidin-3-yl}acetonitrile], the pIC50 in assay [1] was no less than 8.30; against Jak2 (a.a. 828-1132), 7.30 to 8.00. For the same molecule, in assay [2], the “IC50 Ratio JAK2/JAK1” value amounted to 10.0.

Turning to `N#CCC1(n2cc(-c3c(F)cnc4[nH]ccc34)cn2)CN(C2CCN(C(=O)c3ccc(F)c(C#N)c3)CC2)C1` [Example 318, 5-[(4-{3-(cyanomethyl)-3-[4-(5-fluoro-1H-pyrrolo[2,3-b]pyridin-4-yl)-1H-pyrazol-1-yl]azetidin-1-yl}piperidin-1-yl)carbonyl]-2-fluorobenzonitrile], the pIC50 in assay [1] was 7.70 to 8.30; against Jak2 (a.a. 828-1132), 7.30 to 8.00. In addition, the “IC50 Ratio JAK2/JAK1” value in assay [2] is on record as 4.7.

For `Cc1cc(C)c(CC(=O)N2CCC(N3CC(CC#N)(n4cc(-c5ncnc6[nH]ccc56)cn4)C3)CC2)c(C)c1` [Example 113, {1-[1-(mesitylacetyl)piperidin-4-yl]-3-[4-(7H-pyrrolo[2,3-d]pyrimidin-4-yl)-1H-pyrazol-1-yl]azetidin-3-yl}acetonitrile], the values for the pIC50 (in assay [1]; on Jak2 (a.a. 828-1132)) were 7.52 to 7.70 and 7.00 to 7.30, respectively. Moreover, the “IC50 Ratio JAK2/JAK1” value in assay [2] came out at 4.2.

Take `N#CCC1(n2cc(-c3ncnc4[nH]ccc34)cn2)CN(C2CCN(C(=O)c3cccc(Cl)n3)CC2)C1` [Example 13, {1-{1-[(6-chloropyridin-2-yl)carbonyl]piperidin-4-yl}-3-[4-(7H-pyrrolo[2,3-d]pyrimidin-4-yl)-1H-pyrazol-1-yl]azetidin-3-yl}acetonitrile]: the negative logarithm of the IC50 (pIC50) was no less than 8.30 in assay [1] and 7.30 to 8.00 at Jak2 (a.a. 828-1132). Also, the “IC50 Ratio JAK2/JAK1” value in assay [2] amounted to 5.3.

Take `N#CCC1(n2cc(-c3ncnc4[nH]ccc34)cn2)CN(C2CCN(C(=O)c3cccc(C#N)c3)CC2)C1` [Example 11, 3-[(4-{3-(cyanomethyl)-3-[4-(7H-pyrrolo[2,3-d]pyrimidin-4-yl)-1H-pyrazol-1-yl]azetidin-1-yl}piperidin-1-yl)carbonyl]benzonitrile]: the pIC50 was 7.70 to 8.30 in assay [1] and 7.30 to 8.00 on Jak2 (a.a. 828-1132). The “IC50 Ratio JAK2/JAK1” value in assay [2] was found to be 7.2.

Take `N#CCC1(n2cc(-c3ncnc4[nH]ccc34)cn2)CN(C2CCN(C(=O)c3cc(F)c(F)cc3F)CC2)C1` [Example 48, {3-[4-(7H-pyrrolo[2,3-d]pyrimidin-4-yl)-1H-pyrazol-1-yl]-1-[1-(2,4,5-trifluorobenzoyl)piperidin-4-yl]azetidin-3-yl}acetonitrile]: the values for the pIC50 (in assay [1]; on Jak2 (a.a. 828-1132)) were no less than 8.30 and 7.30 to 8.00, respectively. Moreover, the “IC50 Ratio JAK2/JAK1” value in assay [2] stood at 6.5.

Consider `N#CCC1(n2cc(-c3ncnc4[nH]ccc34)cn2)CN(C2CCN(C(=O)Nc3nccs3)CC2)C1` [Example 190, 4-{3-(cyanomethyl)-3-[4-(7H-pyrrolo[2,3-d]pyrimidin-4-yl)-1H-pyrazol-1-yl]azetidin-1-yl}-N-1,3-thiazol-2-ylpiperidine-1-carboxamide], for which the pIC50 in assay [1] is 7.52 to 7.70; against Jak2 (a.a. 828-1132) it was 7.00 to 7.30. For the same molecule, the “IC50 Ratio JAK2/JAK1” value in assay [2] turned out to be 2.1.

Consider `N#CCC1(n2ccc(-c3ncnc4[nH]ccc34)c2)CN(C2CCN(C(=O)c3cnc(C(F)(F)F)cn3)CC2)C1` [Example 347, [3-[3-(7H-Pyrrolo[2,3-d]pyrimidin-4-yl)-1H-pyrrol-1-yl]-1-(1-{[5-(trifluoromethyl)pyrazin-2-yl]carbonyl}piperidin-4-yl)azetidin-3-yl]acetonitrile], for which the pIC50 in assay [1] was 7.70 to 8.30; at Jak2 (a.a. 828-1132), 7.30 to 8.00. The “IC50 Ratio JAK2/JAK1” value in assay [2] is given as 2.7.

For `N#CCC1(n2cc(-c3c(C#N)cnc4[nH]ccc34)cn2)CN(C2CCN(C(=O)c3cc(F)cc(C#N)c3)CC2)C1` [Example 333, 4-{1-[1-[1-(3-cyano-5-fluorobenzoyl)piperidin-4-yl]-3-(cyanomethyl)azetidin-3-yl]-1H-pyrazol-4-yl}-1H-pyrrolo[2,3-b]pyridine-5-carbonitrile], the results for the pIC50 (in assay [1]; against Jak2 (a.a. 828-1132)) were 7.70 to 8.30 and 7.00 to 7.30, respectively. Besides, the “IC50 Ratio JAK2/JAK1” value in assay [2] stood at 8.8.

Consider `N#CCC1(n2cc(-c3ncnc4[nH]ccc34)cn2)CN(C2CCN(C(=O)Nc3ccc(F)cc3Cl)CC2)C1` [Example 162, N-(2-chloro-4-fluorophenyl)-4-{3-(cyanomethyl)-3-[4-(7H-pyrrolo[2,3-d]pyrimidin-4-yl)-1H-pyrazol-1-yl]azetidin-1-yl}piperidine-1-carboxamide], for which the pIC50 was no less than 8.30 in assay [1] and 7.30 to 8.00 against Jak2 (a.a. 828-1132). The “IC50 Ratio JAK2/JAK1” value in assay [2] worked out at 13.6.

With `N#CCC1(n2cc(-c3ncnc4[nH]ccc34)cn2)CN(C2CCN(C(=O)Nc3cnccc3C(F)(F)F)CC2)C1` [Example 165], the pIC50 in assay [1] was 7.70 to 8.30; against Jak2 (a.a. 828-1132), 7.00 to 7.30. In assay [2], the “IC50 Ratio JAK2/JAK1” value came out at 10.4.

For the molecule `N#CCC1(n2cc(-c3c(C#N)cnc4[nH]ccc34)cn2)CN(C2CCN(C(=O)c3cc(C(F)(F)F)ncc3F)CC2)C1` [Example 356, 4-[1-(3-(Cyanomethyl)-1-{1-[5-fluoro-2-(trifluoromethyl)isonicotinoyl]piperidin-4-yl}azetidin-3-yl)-1H-pyrazol-4-yl]-1H-pyrrolo[2,3-b]pyridine-5-carbonitrile], the values for the pIC50 (in assay [1]; against Jak2 (a.a. 828-1132)) were 7.70 to 8.30 and 7.00 to 7.30, respectively. Also, in assay [2], the “IC50 Ratio JAK2/JAK1” value is given as 5.8.

As for `N#CCC1(n2cc(-c3ncnc4[nH]ccc34)cn2)CN(C2CC3CCC(C2)N3C(=O)c2ccc(Cl)c(F)c2)C1` (stereo not drawn) [Example 141, {1-[8-(4-chloro-3-fluorobenzoyl)-8-azabicyclo[3.2.1]oct-3-yl]-3-[4-(7H-pyrrolo[2,3-d]pyrimidin-4-yl)-1H-pyrazol-1-yl]azetidin-3-yl}acetonitrile], the negative logarithm of the IC50 (pIC50) in assay [1] is no less than 8.30; on Jak2 (a.a. 828-1132), no less than 8.00. The “IC50 Ratio JAK2/JAK1” value in assay [2] was determined as 6.2.

For the molecule `N#CCC1(n2cc(-c3ncnc4[nH]ccc34)cn2)CN(C2CCN(C(=O)c3ccc(O)c(Cl)c3)CC2)C1` [Example 84, {1-[1-(3-chloro-4-hydroxybenzoyl)piperidin-4-yl]-3-[4-(7H-pyrrolo[2,3-d]pyrimidin-4-yl)-1H-pyrazol-1-yl]azetidin-3-yl}acetonitrile], the values for the pIC50 (in assay [1]; against Jak2 (a.a. 828-1132)) were no less than 8.30 and 7.30 to 8.00, respectively. Besides, the “IC50 Ratio JAK2/JAK1” value in assay [2] amounted to 6.5.

For the molecule `N#CCC1(n2ccc(-c3ncnc4[nH]ccc34)c2)CN(C2CCN(C(=O)c3ccc(F)c(F)c3)CC2)C1` [Example 277, {1-[1-(3,4-difluorobenzoyl)piperidin-4-yl]-3-[3-(7H-pyrrolo[2,3-d]pyrimidin-4-yl)-1H-pyrrol-1-yl]azetidin-3-yl}acetonitrile], the pIC50 is no less than 8.30 in assay [1] and 7.30 to 8.00 against Jak2 (a.a. 828-1132). In addition, the “IC50 Ratio JAK2/JAK1” value in assay [2] came out at 9.8.
